From ChEMBL document CHEMBL3784925, “Discovery of a New Inhibitor of Myeloid Differentiation 2 from Cinnamamide Derivatives with Anti-Inflammatory Activity in Sepsis and Acute Lung Injury” (J Med Chem, 2016)
Active and inactive are the calls of the source. The rule behind the calls is not given here.

What was measured:
[1] = Cytotoxicity against C57BL/6 mouse primary peritoneal macrophages assessed as reduction in cell viability at 10 uM after 24 hrs by MTT assay; type: cell-based; conditions: peritoneal macrophage cell
[2] = biological target: T1, Lymphocyte antigen 96 (Mus musculus) (UniProt Q9JHF9); assay: Inhibition of MD2/TLR4 complex formation in C57BL/6 mouse primary peritoneal macrophages assessed as reversal of LPS-induced […] at 10 uM preincubated for 30 mins followed by LPS addition measured after 1 hr by DAPI staining based fluorescence microscopic analysis
T1 sequence (whole entry): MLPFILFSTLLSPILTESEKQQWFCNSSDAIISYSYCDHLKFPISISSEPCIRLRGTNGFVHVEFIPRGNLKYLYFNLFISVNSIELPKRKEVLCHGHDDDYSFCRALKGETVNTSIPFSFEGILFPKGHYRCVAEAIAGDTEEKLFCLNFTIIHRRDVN

Compound	Activity [1]	inhibition [2]
CCCCNC(=O)/C=C/c1ccc(OC)cc1OC	Non-toxic	–
COc1ccc(CCNC(=O)/C=C/c2ccc(O)c(OC)c2)cc1	Non-toxic	–
COc1cc(/C=C/C(=O)NCc2ccc(Cl)cc2)ccc1O	Non-toxic	–
COc1nccc(-c2c(-c3ccc(F)cc3)ncn2[C@H]2CC[C@H](O)CC2)n1	–	inactive
O=C(/C=C/c1cccc(Cl)c1Cl)NCc1ccc(Cl)cc1	Non-toxic	–
O=C(/C=C/c1cccc(Cl)c1Cl)NCc1ccc(F)cc1	Non-toxic	–
COc1ccc(/C=C/C(=O)NCCCCCCNC(=O)/C=C/c2ccc(OC)cc2OC)c(OC)c1	Non-toxic	–
COc1cc(/C=C/C(=O)NCc2ccccc2)ccc1O	Non-toxic	–
O=C(/C=C/c1cccc(Cl)c1Cl)NCCCCCCNC(=O)/C=C/c1cccc(Cl)c1Cl	Non-toxic	–
COc1ccc(/C=C/C(=O)NCc2ccc(OC)c(OC)c2)c(OC)c1	Non-toxic	–
COc1cccc(-c2cc(=O)c3ccccc3o2)c1N	–	inactive
COc1ccc(CCNC(=O)/C=C/c2cccc(Cl)c2Cl)cc1	Non-toxic	–
COc1cc(/C=C/C(=O)NCc2ccc(F)cc2)ccc1O	Non-toxic	–
COc1cc(/C=C/C(=O)NCCCc2ccccc2)ccc1O	Non-toxic	–
CCCCNC(=O)/C=C/c1cccc(Cl)c1Cl	Non-toxic	–
COc1cc(/C=C/C(=O)NCCc2ccccc2)ccc1O	Non-toxic	–
COc1cc(/C=C/C(=O)N2CCOCC2)ccc1O	Non-toxic	–
O=C(/C=C/c1cccc(Cl)c1Cl)NCc1ccccc1	Non-toxic	–
